Consider 14 compounds from PubChem BioAssay (NCI).

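Results reflect a 48-hour exposure of cells in 96-well plates to compound at five concentrations. Abbreviation: GI50, concentration required for 50% inhibition of growth. TGI denotes the concentration required for complete inhibition of growth.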

Test systems include HL-60(TB) leukemia; OVCAR-8 ovarian; NCI-H522 lung; UACC-62 melanoma; OVCAR-4 ovarian; OVCAR-3 ovarian; HCT-116 colon; MALME-3M melanoma; A498 renal.
Common to all, as to experiment: inhibition of tumour cell growth, NCI panel, 48 h

As for `Cc1cc(Cl)ccc1NC(=O)C(=O)Cc1nc2ccc(C(=O)c3ccccc3)cc2[nH]c1=O`, the TGI in the test on HL-60(TB) leukemia, with OVCAR-8 ovarian, with NCI-H522 lung, with UACC-62 melanoma, in the test with OVCAR-4 ovarian and in the test with OVCAR-3 ovarian was greater than 100 µM throughout. Besides, the TGI with HCT-116 colon and in the test on MALME-3M melanoma was greater than 100 µM in each case.
With `C/C(=N/N(C=O)C[n+]1ccccc1)C(CN(CC(C)C)CC(C)C)C(=O)Nc1ccc(C)cc1C` (stereo unspecified), the TGI in the test with A498 renal, in the test with HL-60(TB) leukemia, with OVCAR-8 ovarian, in the test with NCI-H522 lung, in the test with UACC-62 melanoma and with OVCAR-4 ovarian was greater than 100 µM each time. For the same compound, the TGI in the test with OVCAR-3 ovarian, in the test with HCT-116 colon and with MALME-3M melanoma was greater than 100 µM in each case.
As for `Nc1nc2c(ncn2Cc2ccccc2CCO)c(=O)[nH]1`, the TGI in the test on A498 renal, with HL-60(TB) leukemia, in the test with OVCAR-8 ovarian, with NCI-H522 lung, with UACC-62 melanoma and with OVCAR-4 ovarian was greater than 100 µM throughout. Also, the TGI in the test on OVCAR-3 ovarian and in the test with MALME-3M melanoma was greater than 100 µM throughout.
As for `COc1cc2nncc(Sc3cnnc4ccccc34)c2cc1OC`, the TGI with A498 renal was 82 µM; with HL-60(TB) leukemia, 70.5 µM; in the test on NCI-H522 lung, 29.8 µM; in the test on UACC-62 melanoma, greater than 100 µM; in the test on OVCAR-4 ovarian, greater than 100 µM; with OVCAR-3 ovarian, 33.3 µM. In the test with MALME-3M melanoma, the TGI was found to be 32.4 µM.
As to `CC12CC3(C)CC(C)(C1)CC(N=[N+]=[N-])(C2)C3`, the TGI in the test with A498 renal, in the test with OVCAR-8 ovarian, with NCI-H522 lung, in the test on UACC-62 melanoma, in the test on OVCAR-4 ovarian and in the test on OVCAR-3 ovarian was greater than 100 µM in each case. In addition, the TGI in the test with HCT-116 colon and in the test on MALME-3M melanoma was greater than 100 µM each time.
On to `COc1ccc(C2C(Cl)C(=O)N2n2cnc3ccccc3c2=O)cc1OC` (stereo unspecified), for which the TGI in the test on HL-60(TB) leukemia, in the test on OVCAR-8 ovarian, with NCI-H522 lung, in the test with UACC-62 melanoma, in the test with OVCAR-4 ovarian and in the test with OVCAR-3 ovarian was greater than 100 µM each time. Further, the TGI in the test on HCT-116 colon and with MALME-3M melanoma was greater than 100 µM throughout.
Take `C=C(C)C1CC2C(C)=C(OC(C)=O)C1n1c(=O)c3cc4ccccc4cc3c(=O)n12` (stereo unspecified): the TGI with A498 renal is greater than 100 µM; with HL-60(TB) leukemia, greater than 36 µM; in the test on OVCAR-8 ovarian it was greater than 100 µM; with NCI-H522 lung, greater than 100 µM; with UACC-62 melanoma, greater than 100 µM; in the test on OVCAR-4 ovarian it was greater than 100 µM. The TGI in the test with OVCAR-3 ovarian, in the test with HCT-116 colon and in the test on MALME-3M melanoma was greater than 100 µM in each case.
Turning to `CSc1nc2c(c(O)c(C)c(=O)n2C2OC(COC(C)=O)C(OC(C)=O)C(OC(C)=O)C2OC(C)=O)c(=O)n1C` (stereo unspecified), the TGI with A498 renal, in the test on HL-60(TB) leukemia, in the test with OVCAR-8 ovarian, in the test on NCI-H522 lung, in the test on UACC-62 melanoma and with OVCAR-4 ovarian was greater than 100 µM in each case. The TGI in the test on OVCAR-3 ovarian, in the test on HCT-116 colon and in the test on MALME-3M melanoma was greater than 100 µM in each case.
As to `CC1(C)C(=O)C(O)=CC2C1=CCC1C2(C)C(=O)CC2(C)C(C(C)(O)C(=O)CC(O)C(C)(C)O)C(O)CC12C` (stereo unspecified), the TGI was 4.37 µM in the test with A498 renal; 11.6 µM in the test with HL-60(TB) leukemia; greater than 100 µM in the test on OVCAR-8 ovarian; 8.61 µM in the test on NCI-H522 lung; 29.7 µM in the test with UACC-62 melanoma; 11.8 µM in the test on OVCAR-4 ovarian. Besides, the values for the TGI in the test on OVCAR-3 ovarian, in the test on HCT-116 colon and in the test with MALME-3M melanoma were 10.2 µM, 33.7 µM and 12.1 µM, respectively.
Regarding `Cc1cc([N+](=O)[O-])c(C)c2c1[nH]c1ccc(/C(CCC3CCCC3)=N\N)cc12`, the TGI in the test on OVCAR-8 ovarian was determined as 75 µM; in the test with NCI-H522 lung it was 35 µM; with OVCAR-4 ovarian, 53.9 µM; in the test on OVCAR-3 ovarian, 36.9 µM; in the test with HCT-116 colon it was 21.7 µM; in the test on MALME-3M melanoma it was 32 µM.
`CC[O-].CC[O-].O=C1C(=C([O-])c2ccccc2)C(=O)c2ccccc21.O=C1C(=C([O-])c2ccccc2)C(=O)c2ccccc21.[Ti+4]`: the GI50 was greater than 100 µM in the test with A498 renal; greater than 100 µM in the test on HL-60(TB) leukemia; 92.7 µM in the test with OVCAR-8 ovarian; greater than 100 µM in the test on UACC-62 melanoma; greater than 100 µM in the test with OVCAR-4 ovarian; greater than 100 µM with OVCAR-3 ovarian. Also, the GI50 in the test with HCT-116 colon and with MALME-3M melanoma was greater than 100 µM throughout. The TGI with A498 renal, in the test on HL-60(TB) leukemia, in the test on OVCAR-8 ovarian, in the test with UACC-62 melanoma, with OVCAR-4 ovarian and with OVCAR-3 ovarian was greater than 100 µM in each case. The TGI with HCT-116 colon and in the test on MALME-3M melanoma was greater than 100 µM throughout.
Regarding `CC(C)c1ccc2nc3ccc(C(=O)NCCN(C)C)cn3c(=O)c2c1`, the TGI in the test on A498 renal came out at 30.8 µM; with HL-60(TB) leukemia, 42.1 µM; in the test with OVCAR-8 ovarian it was 39.9 µM; in the test with NCI-H522 lung it was 29.3 µM; with UACC-62 melanoma, 32.3 µM; with OVCAR-4 ovarian, 56.5 µM. Further, the results for the TGI in the test on OVCAR-3 ovarian, in the test with HCT-116 colon and in the test on MALME-3M melanoma were greater than 100 µM, 27.7 µM and 23.1 µM, respectively.
Regarding `COc1ccc(C(C2=C(C)C(=O)c3ccccc3C2=O)c2ccc(C(C)C)cc(=O)c2O)cc1` (stereo unspecified), the TGI in the test with HL-60(TB) leukemia is 10.6 µM; with OVCAR-8 ovarian, 45.7 µM; with NCI-H522 lung, 48.6 µM; in the test with OVCAR-4 ovarian, greater than 100 µM; in the test with OVCAR-3 ovarian, 8.54 µM; in the test with HCT-116 colon, 14.7 µM. This compound also registered a TGI in the test with MALME-3M melanoma greater than 100 µM.
Take `CC(C)N(C(=O)C12C3C4C1C1C2C3C41C(O)C(C)(C)C)C(C)C` (stereo unspecified): the TGI in the test on A498 renal, with HL-60(TB) leukemia, in the test on OVCAR-8 ovarian, with NCI-H522 lung, in the test with UACC-62 melanoma and in the test on OVCAR-3 ovarian was greater than 50 µM in each case. For the same compound, the TGI with HCT-116 colon and with MALME-3M melanoma was greater than 50 µM each time.
